Assay results as given in patent US20240409573A1, “CALICHEAMICIN DERIVATIVES AND ANTIBODY DRUG CONJUGATES THEREOF” (priority 2017, published 2024).
pIC50: −log10 of the molar value.

Columns and labels:
Format in all cases: cell-based
[1] = system: HT29 cells, Her2-non-expressing; test: In vitro cell assay, cell viability by MTS, HT29; conditions: Homo sapiens, HT-29, 96 h, read-out: Average IC50, HT29
Description: (§1) Her2-Target expressing (BT474 (breast cancer), N87 (gastric cancer), MDA-MB-361-DYT2 (breast cancer)) or Her2-non-expressing (MDA-MB-468, HT29) cells, or 0033-target expressing HL60, HEL92.1.7, NB4, TF-1 or 0033-non-expressing (Raji) cells were seeded in 96-well cell culture plates for 24 hours before treatment. Cells were treated with 3-fold serially diluted antibody-drug conjugates or free compounds (i.e., no antibody conjugated to the drug) in duplicate at 10 concentrations. Cell viability was determined by CellTiter 96® AQueous One Solution Cell Proliferation MTS Assay (Promega, Madison WI) 96 hours after treatment. Relative cell viability was determined as percentage of untreated control. IC50 values were calculated using a four parameter logistic model #203 with XLfit v4.2 (IDBS, Guildford, Surry, UK). Results are shown below in Table 3 (for payloads), Table 4 (for Herceptin conjugates), and Table 5 (for CD33 conjugates).

[2] = system: MDA-MB-361-DYT2 (breast cancer) cells, Her2-target expressing; test: In vitro cell assay, cell viability by MTS, MDA-MB-361-DYT2; conditions: 96 h, read-out: Average IC50, MDA-MB-361-DYT2
Description: as §1

[3] = system: N87 (gastric cancer) cells, Her2-target expressing; test: In vitro cell assay, cell viability by MTS, N87; conditions: 96 h, read-out: Average IC50, N87
Description: as §1

[4] = system: Raji cells, CD33-non-expressing; test: In vitro cell assay, cell viability by MTS, Raji; conditions: Homo sapiens, 96 h, read-out: Average IC50, Raji
Description: as §1

[5] = system: HL60 cells, CD33-target expressing; test: In vitro cell assay, cell viability by MTS, HL60; conditions: Homo sapiens, HL-60, 96 h, read-out: Average IC50, HL-60
Description: as §1

[6] = system: TF-1 cells, CD33-target expressing; test: In vitro cell assay, cell viability by MTS, TF-1; conditions: Homo sapiens, TF-1, 96 h, read-out: Average IC50, TF-1
Description: as §1

SMILES | pIC50 [1] | pIC50 [2] | pIC50 [3] | pIC50 [4] | pIC50 [5] | pIC50 [6]
CCN[C@H]1CO[C@@H](O[C@H]2[C@H](O[C@H]3C#CC=CC#C[C@]4(O)CC(=O)C(NC(=O)OC)=C3/C4=C\CSSC3CCC3)O[C@H](C)[C@@H](NO[C@H]3C[C@H](O)[C@H](SC(=O)c4c(C)c(I)c(O[C@@H]5O[C@@H](C)[C@H](O)[C@@H](OC)[C@H]5O)c(OC)c4OC)[C@@H](C)O3)[C@@H]2O)C[C@@H]1OC [Example P19] | 11.40 | 11.30 | 11.30 | – | – | –
CCN[C@H]1CO[C@@H](O[C@H]2[C@H](O[C@H]3C#C/C=C\C#C[C@]4(O)CC(=O)C(NC(=O)OC)=C3/C4=C\CSSC(C)(C)c3ccc(C(=O)O)cc3)O[C@H](C)[C@@H](NO[C@H]3C[C@H](O)[C@H](SC(=O)c4c(C)c(I)c(O[C@@H]5O[C@@H](C)[C@H](O)[C@@H](OC)[C@H]5O)c(OC)c4OC)[C@@H](C)O3)[C@@H]2O)C[C@@H]1OC [Example P29] | 10.44 | 10.60 | 9.77 | 10.82 | 10.60 | 9.33
CCN[C@H]1CO[C@@H](O[C@H]2[C@H](O[C@H]3C#C/C=C\C#C[C@]4(O)CC(=O)C(NC(=O)OC)=C3/C4=C\CSSC(C)(C)c3ccc(N)cc3)O[C@H](C)[C@@H](NO[C@H]3C[C@H](O)[C@H](SC(=O)c4c(C)c(I)c(O[C@@H]5O[C@@H](C)[C@H](O)[C@@H](OC)[C@H]5O)c(OC)c4OC)[C@@H](C)O3)[C@@H]2O)C[C@@H]1OC [Example P27] | 11.22 | 11.52 | 10.40 | 11.70 | 11.40 | 10.70
CCN[C@H]1CO[C@@H](O[C@H]2[C@H](O[C@H]3C#C/C=C\C#C[C@]4(O)CC(=O)C(NC(=O)OC)=C3/C4=C\CSSC[C@H](NC(=O)CC[C@H](N)C(=O)O)C(=O)NCC(=O)O)O[C@H](C)[C@@H](NO[C@H]3C[C@H](O)[C@H](SC(=O)c4c(C)c(I)c(O[C@@H]5O[C@@H](C)[C@H](O)[C@@H](OC)[C@H]5O)c(OC)c4OC)[C@@H](C)O3)[C@@H]2O)C[C@@H]1OC [Example P14] | 8.65 | 7.81 | 8.56 | – | – | –
CCNC1COC(OC2C(OC3C#C/C=C\C#C[C@]4(O)CC(=O)C(NC(=O)OC)=C3/C4=C\CSSC3CCCC3)OC(C)C(NOC3CC(O)C(SC(=O)c4c(C)c(I)c(OC5OC(C)C(O)C(OC)C5O)c(OC)c4OC)C(C)O3)C2O)CC1OC (stereo in doubt) [Example P20] | 11.70 | 11.30 | 11.40 | – | – | –
CCN[C@H]1CO[C@@H](O[C@H]2[C@H](O[C@H]3C#C/C=C\C#C[C@]4(O)CC(=O)C(NC(=O)OC)=C3/C4=C\CSSC34CC5CC(CC(C5)C3)C4)O[C@H](C)[C@@H](NO[C@H]3C[C@H](O)[C@H](SC(=O)c4c(C)c(I)c(O[C@@H]5O[C@@H](C)[C@H](O)[C@@H](OC)[C@H]5O)c(OC)c4OC)[C@@H](C)O3)[C@@H]2O)C[C@@H]1OC [Example P22] | 11.05 | 10.36 | 10.82 | – | – | –
CCN[C@H]1CO[C@@H](O[C@H]2[C@H](O[C@H]3C#C/C=C\C#C[C@]4(O)CC(=O)C(NC(=O)OC)=C3/C4=C\CSSC3CCN(C)CC3)O[C@H](C)[C@@H](NO[C@H]3C[C@H](O)[C@H](SC(=O)c4c(C)c(I)c(O[C@@H]5O[C@@H](C)[C@H](O)[C@@H](OC)[C@H]5O)c(OC)c4OC)[C@@H](C)O3)[C@@H]2O)C[C@@H]1OC [Example P15] | 9.92 | 10.11 | 10.11 | – | – | –
CCN[C@H]1CO[C@@H](O[C@H]2[C@H](O[C@H]3C#C/C=C\C#C[C@]4(O)CC(=O)C(NC(=O)OC)=C3/C4=C\CSSC(C)(C)[C@H](N)C(=O)O)O[C@H](C)[C@@H](NO[C@H]3C[C@H](O)[C@H](SC(=O)c4c(C)c(I)c(O[C@@H]5O[C@@H](C)[C@H](O)[C@@H](OC)[C@H]5O)c(OC)c4OC)[C@@H](C)O3)[C@@H]2O)C[C@@H]1OC [Example P33] | 9.41 | 8.82 | 8.78 | 9.58 | 9.69 | 8.96
CCN[C@H]1CO[C@@H](O[C@H]2[C@H](O[C@H]3C#C/C=C\C#C[C@]4(O)CC(=O)C(NC(=O)OC)=C3/C4=C\CSSC(C)(C)CC(=O)O)O[C@H](C)[C@@H](NO[C@H]3C[C@H](O)[C@H](SC(=O)c4c(C)c(I)c(O[C@@H]5O[C@@H](C)[C@H](O)[C@@H](OC)[C@H]5O)c(OC)c4OC)[C@@H](C)O3)[C@@H]2O)C[C@@H]1OC [Example P32] | 11.40 | 10.89 | 10.82 | 11.40 | 11.52 | 10.42
CCN[C@H]1CO[C@@H](O[C@H]2[C@H](O[C@H]3C#C/C=C\C#C[C@]4(O)CC(=O)C(NC(=O)OC)=C3/C4=C\CSSC(C)(C)C#N)O[C@H](C)[C@@H](NO[C@H]3C[C@H](O)[C@H](SC(=O)c4c(C)c(I)c(O[C@@H]5O[C@@H](C)[C@H](O)[C@@H](OC)[C@H]5O)c(OC)c4OC)[C@@H](C)O3)[C@@H]2O)C[C@@H]1OC [Example P23] | 10.92 | 11.15 | 11.30 | – | – | –
CCN[C@H]1CO[C@@H](O[C@H]2[C@H](O[C@H]3C#C/C=C\C#C[C@]4(O)CC(=O)C(NC(=O)OC)=C3/C4=C\CSSC(C)(C)CCNC(=O)[C@H](CCCNC(N)=O)NC(=O)[C@@H](NC(C)=O)C(C)C)O[C@H](C)[C@@H](NO[C@H]3C[C@H](O)[C@H](SC(=O)c4c(C)c(I)c(O[C@@H]5O[C@@H](C)[C@H](O)[C@@H](OC)[C@H]5O)c(OC)c4OC)[C@@H](C)O3)[C@@H]2O)C[C@@H]1OC [Example P35] | 8.43 | 8.63 | 7.83 | 8.68 | 8.65 | 8.13
CCN[C@H]1CO[C@@H](O[C@H]2[C@H](O[C@H]3C#C/C=C\C#C[C@]4(O)CC(=O)C(NC(=O)OC)=C3/C4=C\CSSC(C)(C)c3cccnc3N)O[C@H](C)[C@@H](NO[C@H]3C[C@H](O)[C@H](SC(=O)c4c(C)c(I)c(O[C@@H]5O[C@@H](C)[C@H](O)[C@@H](OC)[C@H]5O)c(OC)c4OC)[C@@H](C)O3)[C@@H]2O)C[C@@H]1OC [Example P26] | 11.40 | 10.77 | 10.46 | 11.40 | 11.70 | 10.44
CCN[C@H]1CO[C@@H](O[C@H]2[C@H](O[C@H]3C#C/C=C\C#C[C@]4(O)CC(=O)C(NC(=O)OC)=C3/C4=C\CSSC(C)(C)CNCCOc3ccccc3)O[C@H](C)[C@@H](NO[C@H]3C[C@H](O)[C@H](SC(=O)c4c(C)c(I)c(O[C@@H]5O[C@@H](C)[C@H](O)[C@@H](OC)[C@H]5O)c(OC)c4OC)[C@@H](C)O3)[C@@H]2O)C[C@@H]1OC [Example P36] | 8.89 | 8.41 | 8.21 | 8.95 | 9.06 | 8.16
CCN[C@H]1CO[C@@H](O[C@H]2[C@H](O[C@H]3C#C/C=C\C#C[C@]4(O)CC(=O)C(NC(=O)OC)=C3/C4=C\CSSC(C)C(=O)O)O[C@H](C)[C@@H](NO[C@H]3C[C@H](O)[C@H](SC(=O)c4c(C)c(I)c(O[C@@H]5O[C@@H](C)[C@H](O)[C@@H](OC)[C@H]5O)c(OC)c4OC)[C@@H](C)O3)[C@@H]2O)C[C@@H]1OC (mixture of isomers) [Example P9] | 9.48 | 8.72 | 9.41 | – | – | –
CCN(C(=O)Nc1ccc(CNC(=O)OCC2c3ccccc3-c3ccccc32)cc1)[C@H]1CO[C@@H](O[C@H]2[C@H](O[C@H]3C#C/C=C\C#C[C@]4(O)CC(=O)C(NC(=O)OC)=C3/C4=C\CSSC(C)(C)C)O[C@H](C)[C@@H](NO[C@H]3C[C@H](O)[C@H](SC(=O)c4c(C)c(I)c(O[C@@H]5O[C@@H](C)[C@H](O)[C@@H](OC)[C@H]5O)c(OC)c4OC)[C@@H](C)O3)[C@@H]2O)C[C@@H]1OC [Example P49] | 11.22 | > 10.00 | 11.15 | 11.70 | 11.52 | 10.29
CCN[C@H]1CO[C@@H](O[C@H]2[C@H](O[C@H]3C#C/C=C\C#C[C@]4(O)CC(=O)C(NC(=O)OC)=C3/C4=C\CSSC3CCN(C(=O)OC(C)(C)C)CC3)O[C@H](C)[C@@H](NO[C@H]3C[C@H](O)[C@H](SC(=O)c4c(C)c(I)c(O[C@@H]5O[C@@H](C)[C@H](O)[C@@H](OC)[C@H]5O)c(OC)c4OC)[C@@H](C)O3)[C@@H]2O)C[C@@H]1OC [Example P17] | 9.30 | 9.82 | 8.62 | – | – | –
CCNC1COC(OC2C(OC3C#C/C=C\C#C[C@]4(O)CC(=O)C(NC(=O)OC)=C3/C4=C\CSSC3CCCCC3)OC(C)C(NOC3CC(O)C(SC(=O)c4c(C)c(I)c(OC5OC(C)C(O)C(OC)C5O)c(OC)c4OC)C(C)O3)C2O)CC1OC (stereo in doubt) [Example P21] | 10.92 | 10.19 | 10.89 | – | – | –
